{
  "source": "patent US20160221992A1",
  "about": "“DENDRITIC COMPOUNDS INCLUDING A CHELATING, FLUOROCHROME OR RECOGNITION AGENT, COMPOSITIONS INCLUDING SAME AND USES THEREOF” (UNIVERSITE DE STRASBOURG, priority 2013, published 2016)",
  "key": {"[1]": {"system": "murine melanoma (B16FO line)", "assay": "Quantitative study of tumoral fixation and biodistribution of the radiolabeled compound (ex-vivo gamma counting after IV injection)", "format": "in vivo, C57B16 mice", "details": "for Ratio (g)/Al TU/kidneys / Ratio (g)/Al Tu/Liver / Ratio (g)/Al Tu/Lungs / Ratio (g)/Al Tu/blood / Total Elimination (% del ‘Al’) / Tumor (g/Al %) / Total Elimination: Indium-111-radiolabeled, IV", "method": "C57B16 mice bearing xenografts of murine melanoma (B16FO line) obtained by subcutaneous injection of 300 000 cells suspended in 100 μl of RPMI culture medium are injected subcutaneously in the back. The experiment is performed when the tumors are palpable. i.e. about 10 days […]. All the experiments (tumoral graft, injection and imaging) are carried out under isoflurane/oxygen (2.5%/2.5%) gas anesthesia.\nInjection of 50 to 100 microliters of the radiolabeled solution, with a maximum activity of 20 MBQ, by direct intravenous injection (caudal vein). The activity of the empty syringe after injection+compress is also measured for calculating the actual activity injected (actual Ac injected=Ac normalized full syringe—normalized activity (empty syringe and compress). Normalization consists in calculating the theoretical activity at one and the same time chosen as reference (for example the time of injection). The measurements are performed on a regularly calibrated activity meter for medical use (Medisystem©).\nScintigraphic imaging is carried out using a dedicated small animal micro-5 imager SPECT-CT (BIOSCAN™). A planar scintigraphic image is obtained immediately after injection to verify absence of intracaudal stasis. If there is stasis, the mouse will be sacrificed at late times (24 or 48 h). Static scintigraphic images may be recorded at 2 h, 4 h, 24 h and 48 h (Imager micro-SPECT-CT BIOSCAN©).\nThis is done ex-vivo by gamma counting of the various samples, using a gamma well counter for medical use, regularly calibrated for the isotopes used (Tc-99m and In-111). The animals are euthanized according to the protocols allowed by the animal ethics committee at 2 h, 4 h, 24 h or 48 h. The main organs are removed (brain, spleen, kidneys, lungs, heart, alimentary canal, liver) as well as a fragment of skin, muscle, bone and a blood sample and the whole tumor. Each sample is weighed and its gamma activity is counted in a sample-changing well counter for dedicated medical use, calibrated for the radioelements used. The animal's carcass is also weighed after removing the tail; these samples are incinerated and their gamma activity is also measured. The gamma activity of the samples containing all the collected urine and the feces is also measured. The activity of each sample is normalized (relative to the time of injection), and the ratio of the activity of each sample is calculated relative to the total activity injected (=the sum of all of the activities measured except that of the tail), expressed in % per gram of tissue, for calculating the ratio of the activity present in the tumor relative to the main organs (liver, kidneys, lungs and blood). The percentage of the activity eliminated is calculated.\nThe mean values of all of the data for all of the mice whose data are exploitable are calculated, as well as after eliminating the animals with urinary excretion that is too quick (>50% at 2 h or 75% at 4 h, as well as the mice with tumors >2 g, as the existence of necrosis may distort the calculation of the ratio of fixation in the tumor).\nThe biodistribution data of the various dendrimer compounds coupled to the IFC01102 ligand (also called amine R) and to a chelating agent are compared with those of the ligand alone coupled to the DOTA chelating agent (compound AP045) and radiolabeled with the same radioelement. 8.5 Results with Compound APAG9-1 (Radiolabeled with Tc99m) The radiochemical purity is above 95%, according to the chromatographic profile obtained as described above (example 5). 12 animals were injected. The average activity injected is 3.5±2.4 MBq. 2 animals were euthanized at 2 h, 4 at 24 h and 48 h post-injection. Examples of planar image immediately post-injection and 2 hours post-injection are illustrated in FIG. 3."}, "[2]": {"system": "murine melanoma (B16FO line)", "assay": "Quantitative study of tumoral fixation and biodistribution of the radiolabeled compound (ex-vivo gamma counting after IV injection)", "format": "in vivo, C57B16 mice"}, "[3]": {"details": "cited from earlier work"}, "[4]": {"details": "48 post-IV, animals with low urinary excretion or under hydric restriction"}, "[5]": {"details": "2 h post-iv, animals with low urinary excretion or under hydric restriction"}, "[6]": {"details": "4 h post-IV, animals with low urinary excretion or under hydric restriction"}, "[7]": {"details": "24 h post-IV, animals with low urinary excretion or under hydric restriction"}},
  "data": [
    {"compound": "CCN(CC)CCNC(=O)c1cnc2cc(NC(=O)NCCOCCOCCNC(=O)CN3CCN(CC(=O)O)CCN(CC(=O)O)CCN(CC(=O)O)CC3)ccc2n1", "note": "[AP045, reference compound]", "values": [
      {"measurement": "Ratio (g)/Al TU/kidneys", "setting": "[1]; 48 post-IV", "result": "4.06E−01"},
      {"measurement": "Ratio (g)/Al Tu/Liver", "setting": "[1]; 48 post-IV", "result": "7.14E−02"},
      {"measurement": "Ratio (g)/Al Tu/Lungs", "setting": "[1]; 48 post-IV", "result": "2.97E+00"},
      {"measurement": "Ratio (g)/Al Tu/blood", "setting": "[1]; 48 post-IV", "result": "9.95E+00"},
      {"measurement": "Total Elimination (% del ‘Al’)", "setting": "[1]; 48 post-IV", "result": "7.23E+01", "unit": "% del ‘Al’"},
      {"measurement": "Tumor (g/Al %)", "setting": "[1]; 48 post-IV", "result": "1.19E+00", "unit": "g/Al %"},
      {"measurement": "Ratio (g)/Al TU/kidneys", "setting": "[1]; 4 h post-IV", "result": "2.45E−01"},
      {"measurement": "Ratio (g)/Al Tu/Liver", "setting": "[1]; 4 h post-IV", "result": "4.97E−02"},
      {"measurement": "Ratio (g)/Al Tu/Lungs", "setting": "[1]; 4 h post-IV", "result": "1.92E+00"},
      {"measurement": "Ratio (g)/Al Tu/blood", "setting": "[1]; 4 h post-IV", "result": "1.12E+01"},
      {"measurement": "Tumor (g/Al %)", "setting": "[1]; 4 h post-IV", "result": "1.44E+00", "unit": "g/Al %"},
      {"measurement": "tumor ratio relative to the liver", "setting": "[1]; 24 hours after IV injection, Indium-111", "result": "greater than 1"},
      {"measurement": "Ratio (g)/Al TU/kidneys", "setting": "[1]; 24 h post-IV", "result": "2.93E−01"},
      {"measurement": "Ratio (g)/Al Tu/Liver", "setting": "[1]; 24 h post-IV", "result": "1.31E+00"},
      {"measurement": "Ratio (g)/Al Tu/Lungs", "setting": "[1]; 24 h post-IV", "result": "3.55E+00"},
      {"measurement": "Total Elimination (% del ‘Al’)", "setting": "[1]; 24 h post-IV", "result": 90.33, "unit": "% del ‘Al’"},
      {"measurement": "Tumor (g/Al %)", "setting": "[1]; 24 h post-IV", "result": "1.77E+00", "unit": "g/Al %"},
      {"measurement": "time at which the maximum tumoral uptake is observed", "setting": "[1]; after IV injection of the radiolabeled compound", "result": 24, "unit": "h"},
      {"measurement": "Total Elimination (% del ‘Al’)", "setting": "[2]; 4 h post-IV, Indium-111-radiolabeled, IV", "result": "6.38E+01", "unit": "% del ‘Al’"},
      {"measurement": "tumor/kidney ratio (in words)", "setting": "[2]; Indium-111, activity in the kidneys still high", "result": "unfavorable"}
    ]},
    {"compound": "CCN(CC)CCNC(=O)c1cnc2cc(NC(=O)NCCOCCOCCNC(=O)CCOCCOCCOCCOCCNC(=O)CCN(CCNC(=O)CCN(CCC(=O)NCCN(CCC(=O)NCCOCCOCCOCCOCCC(=O)NCCOCCOCCNC(=O)Nc3ccc4nc(C(=O)NCCN(CC)CC)cnc4c3)CCC(=O)NCCOCCOCCOCCOCCC(=O)NCCOCCOCCNC(=O)Nc3ccc4nc(C(=O)NCCN(CC)CC)cnc4c3)Cc3cn(CCOCCOCCOCCOCCNC(=O)CN4CCN(CC(=O)O)CCN(CC(=O)O)CCN(CC(=O)O)CC4)nn3)CCC(=O)NCCOCCOCCOCCOCCC(=O)NCCOCCOCCNC(=O)Nc3ccc4nc(C(=O)NCCN(CC)CC)cnc4c3)ccc2n1", "note": "[AP070]", "values": [
      {"measurement": "Ratio (g)/Al TU/kidneys", "setting": "[1]; [4]", "result": "5.23E−01"},
      {"measurement": "Ratio (g)/Al Tu/Liver", "setting": "[1]; [4]", "result": "1.59E+00"},
      {"measurement": "Ratio (g)/Al Tu/Lungs", "setting": "[1]; [4]", "result": "6.28E+00"},
      {"measurement": "Ratio (g)/Al Tu/blood", "setting": "[1]; [4]", "result": "1.74E+01"},
      {"measurement": "Total Elimination", "setting": "[1]; [4]", "result": "8.4E+01"},
      {"measurement": "Tumor (g/Al %)", "setting": "[1]; [4]", "result": "3.60E+00", "unit": "g/Al %"},
      {"measurement": "Ratio (g)/Al TU/kidneys", "setting": "[1]; [5]", "result": "3.6E−01"},
      {"measurement": "Ratio (g)/Al Tu/Liver", "setting": "[1]; [5]", "result": "1.4E+00"},
      {"measurement": "Ratio (g)/Al Tu/Lungs", "setting": "[1]; [5]", "result": "2.1E+00"},
      {"measurement": "Ratio (g)/Al Tu/blood", "setting": "[1]; [5]", "result": "1.9E+00"},
      {"measurement": "Total Elimination", "setting": "[1]; [5]", "result": "4.8E+01"},
      {"measurement": "Tumor (g/Al %)", "setting": "[1]; [5]", "result": "5.9E+00", "unit": "g/Al %"},
      {"measurement": "tumoral uptake (in words)", "setting": "[1]; 4 hours after IV injection, Indium-111", "result": "high"},
      {"measurement": "Ratio (g)/Al TU/kidneys", "setting": "[1]; [6]", "result": "3.96E−01"},
      {"measurement": "Ratio (g)/Al Tu/Liver", "setting": "[1]; [6]", "result": "1.28E+00"},
      {"measurement": "Ratio (g)/Al Tu/Lungs", "setting": "[1]; [6]", "result": "2.93E+00"},
      {"measurement": "Ratio (g)/Al Tu/blood", "setting": "[1]; [6]", "result": "3.07E+00"},
      {"measurement": "Total Elimination", "setting": "[1]; [6]", "result": "2.6E+01"},
      {"measurement": "Tumor (g/Al %)", "setting": "[1]; [6]", "result": "1.27E+01", "unit": "g/Al %"},
      {"measurement": "Ratio (g)/Al TU/kidneys", "setting": "[1]; [7]", "result": "2.58E−01"},
      {"measurement": "Ratio (g)/Al Tu/Liver", "setting": "[1]; [7]", "result": "4.06E−01"},
      {"measurement": "Ratio (g)/Al Tu/Lungs", "setting": "[1]; [7]", "result": "3.52E+00"},
      {"measurement": "Ratio (g)/Al Tu/blood", "setting": "[1]; [7]", "result": "2.00E+01"},
      {"measurement": "Total Elimination", "setting": "[1]; [7]", "result": "6.8E+01"},
      {"measurement": "Tumor (g/Al %)", "setting": "[1]; [7]", "result": "3.69E+00", "unit": "g/Al %"},
      {"measurement": "tumoral uptake compared with the ligand alone (AP045)", "setting": "[1]; APAG22-1: at two hours post-IV", "result": "far higher"},
      {"measurement": "tumor/liver ratio relative to the compound AP071", "setting": "[1]; Indium-111", "result": "less favorable"},
      {"measurement": "tumoral uptake relative to the compound AP071", "setting": "[2]; notably at 4 hours, Indium-111", "result": "lower"}
    ]},
    {"compound": "O=C([O-])CN(CCN(CC(=O)[O-])CC(=O)O)CCN(CC(=O)[O-])CC(=O)O.[Gd+3]", "note": "[Gd(III)-DTPA]", "values": [
      {"measurement": "relaxation rate r1", "setting": "[3]; 0.6 T, 20° C.", "result": 5400, "unit": "M⁻¹ s⁻¹"}
    ]},
    {"compound": "Gadomer-17", "values": [
      {"measurement": "r1", "setting": "[3]; 1.5 T and 37° C.", "result": 15.2, "unit": "mM⁻¹ s⁻¹"}
    ]}
  ]
}
